Source: the NIST ThermoML archive (doi:10.1021/je300017m)
Values joined by “and” are separate entries in the source; they are usually repeats but may differ in a detail not shown here. Identical values can stand only once.

Key:
[1] = mn = molality of the nth substance listed, in mol/kg; conditions: 101 kPa, Liquid
[2] = 101 kPa, Liquid

CCCCCCCCCCn1cc[n+](C)c1.[Br-] [1-decyl-3-methylimidazolium bromide] + C[S+](C)[O-]
[1]
Conditions	mass density [kg/m3]
293.15 K, m1 = 0.00402	1100.27
293.15 K, m1 = 0.00649	1100.3
293.15 K, m1 = 0.00933	1100.34
293.15 K, m1 = 0.01163	1100.38
293.15 K, m1 = 0.0141	1100.41
293.15 K, m1 = 0.0167	1100.45
293.15 K, m1 = 0.01877	1100.49
293.15 K, m1 = 0.02117	1100.53
293.15 K, m1 = 0.02341	1100.56
293.15 K, m1 = 0.02766	1100.63
303.15 K, m1 = 0.00542	1090.45
303.15 K, m1 = 0.00729	1090.48
303.15 K, m1 = 0.00969	1090.52
303.15 K, m1 = 0.01151	1090.55
303.15 K, m1 = 0.01339	1090.58
303.15 K, m1 = 0.01545	1090.61
303.15 K, m1 = 0.01741	1090.65
303.15 K, m1 = 0.01809	1090.66
303.15 K, m1 = 0.01996	1090.69
308.15 K, m1 = 0.00501	1085.49
308.15 K, m1 = 0.00676	1085.52
308.15 K, m1 = 0.01153	1085.59
308.15 K, m1 = 0.01415	1085.64
308.15 K, m1 = 0.01624	1085.68
308.15 K, m1 = 0.0184	1085.72
308.15 K, m1 = 0.02101	1085.76
308.15 K, m1 = 0.0233	1085.8
313.15 K, m1 = 0.00484	1080.52
313.15 K, m1 = 0.0071	1080.56
313.15 K, m1 = 0.00963	1080.6
313.15 K, m1 = 0.01229	1080.65
313.15 K, m1 = 0.01489	1080.69
313.15 K, m1 = 0.01739	1080.74
313.15 K, m1 = 0.0195	1080.78
313.15 K, m1 = 0.02205	1080.82
313.15 K, m1 = 0.02449	1080.87

C[S+](C)[O-] [dimethyl sulfoxide]
[2]
Conditions	mass density
293.15 K	1100.22 kg/m3
303.15 K	1090.37 kg/m3 [middle of 4 runs]
308.15 K	1085.41 kg/m3 and 1085.42 kg/m3
313.15 K	1080.45 kg/m3 and 1080.43 kg/m3 and 1080.47 kg/m3

C[S+](C)[O-] [dimethyl sulfoxide] + CCCCCCCCCCCCn1cc[n+](C)c1.[Br-]
[1], m2 = 0
Conditions	mass density [kg/m3]
293.15 K	1100.22
303.15 K	1090.38
308.15 K	1085.41
313.15 K	1080.47

C[S+](C)[O-] [dimethyl sulfoxide] + CCCCCCCCn1cc[n+](C)c1.[Br-]
[1], m2 = 0
Conditions	mass density [kg/m3]
293.15 K	1100.22
303.15 K	1090.34
308.15 K	1085.41
313.15 K	1080.43

CCCCn1cc[n+](C)c1.[Br-] [1-butyl-3-methylimidazolium bromide] + C[S+](C)[O-]
[1]
Conditions	mass density [kg/m3]
293.15 K, m1 = 0.00417	1100.42
293.15 K, m1 = 0.00643	1100.53
293.15 K, m1 = 0.00951	1100.68
293.15 K, m1 = 0.01236	1100.82
293.15 K, m1 = 0.015	1100.95
293.15 K, m1 = 0.01784	1101.09
293.15 K, m1 = 0.02066	1101.23
293.15 K, m1 = 0.02307	1101.35
293.15 K, m1 = 0.02628	1101.51
293.15 K, m1 = 0.02848	1101.62
303.15 K, m1 = 0.00497	1090.6
303.15 K, m1 = 0.00823	1090.76
303.15 K, m1 = 0.01126	1090.91
303.15 K, m1 = 0.01409	1091.05
303.15 K, m1 = 0.01689	1091.19
303.15 K, m1 = 0.02008	1091.35
303.15 K, m1 = 0.02326	1091.51
303.15 K, m1 = 0.02642	1091.67
303.15 K, m1 = 0.02917	1091.82
303.15 K, m1 = 0.03153	1091.94
308.15 K, m1 = 0.00514	1085.66
308.15 K, m1 = 0.00817	1085.81
308.15 K, m1 = 0.01139	1085.97
308.15 K, m1 = 0.01418	1086.11
308.15 K, m1 = 0.01696	1086.25
308.15 K, m1 = 0.01992	1086.41
308.15 K, m1 = 0.02347	1086.59
308.15 K, m1 = 0.0264	1086.74
308.15 K, m1 = 0.02914	1086.88
308.15 K, m1 = 0.03167	1087.01
313.15 K, m1 = 0.00489	1080.7
313.15 K, m1 = 0.00769	1080.83
313.15 K, m1 = 0.01069	1080.98
313.15 K, m1 = 0.01325	1081.11
313.15 K, m1 = 0.01542	1081.23
313.15 K, m1 = 0.01934	1081.43
313.15 K, m1 = 0.02264	1081.6
313.15 K, m1 = 0.02575	1081.76
313.15 K, m1 = 0.02845	1081.9
313.15 K, m1 = 0.03154	1082.06
